Experimental data: patent publication US20230017045A1, “PYRIDINE AND PYRIMIDINE CARBOXYLATE HERBICIDES AND METHODS OF USE THEREOF” (Dow AgroSciences LLC, priority 2017, published 2023)
Read-outs that look alike come from different tables or passages of the source.

Test system: test plant species
Test: Post-emergent herbicidal activity test (greenhouse, foliar spray, visual growth reduction)
Format: in vivo
Settings: post-emergence, 336 h, 140 g ai/ha
How it was run: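 Scoring used a 0 to 100 percent visual scale of growth reduction against solvent-treated controls, read 14 d after spraying. Applications went onto plants at first or second true leaf stage, 187 L/ha, with crop oil concentrate and X-77 surfactant in the carrier. Post-treatment watering was by subirrigation to avoid wash-off.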

[1] = ECHCG: barnyardgrass (Echinochloa crus-galli), 14 days after application, read-out: Visual Growth Reduction (%) 14 Days After Application, ECHCG
[2] = IPOHE: ivy-leaf morning glory (Ipomoea hederacea), 14 days after application, read-out: Visual Growth Reduction (%) 14 Days After Application, IPOHE
[3] = KCHSC: kochia (Bassia scoparia), 14 days after application, read-out: Visual Growth Reduction (%) 14 Days After Application, KCHSC
[4] = ORYSA: rice (Oryza sativa), 14 days after application, read-out: Visual Growth Reduction (%) 14 Days After Application, ORYSA
[5] = SETFA: giant foxtail (Setaria faberi), 14 days after application, read-out: Visual Growth Reduction (%) 14 Days After Application, SETFA
[6] = SORVU: grain sorghum (Sorghum vulgare), 14 days after application, read-out: Visual Growth Reduction (%) 14 Days After Application, SORVU
[7] = STEME: common chickweed (Stellaria media), 14 days after application, read-out: Visual Growth Reduction (%) 14 Days After Application, STEME
[8] = TRZAS: wheat, spring (Triticum aestivum), 14 days after application, read-out: Visual Growth Reduction (%) 14 Days After Application, TRZAS
[9] = blackgrass (Alopecurus myosuroides), 14 Days After Application, read-out: Visual Growth Reduction (%) ALOMY
[10] = canada thistle (Cirsium arvense), 14 Days After Application, read-out: Visual Growth Reduction (%) CIRAR
[11] = crabgrass (Digitaria sanguinalis), 14 Days After Application, read-out: Visual Growth Reduction (%) DIGSA
[12] = lambsquarters (Chenopodium album), 14 Days After Application, read-out: Visual Growth Reduction (%) CHEAL
[13] = redroot pigweed (Amaranthus retroflexus), 14 Days After Application, read-out: Visual Growth Reduction (%) AMARE
[14] = wild oat (Avena fatua), 14 Days After Application, read-out: Visual Growth Reduction (%) AVEFA
[15] = yellow nutsedge (Cyperus esculentus), 14 Days After Application, read-out: Visual Growth Reduction (%) CYPES

Measured: pest or weed control at 140 g/ha

CCOc1c(Cl)ccc(-c2ccc(Cl)c(C(=O)OC)n2)c1Cl [F276, Methyl 3-chloro-6-(2,4-dichloro-3-ethoxyphenyl) picolinate]
0 to 29%: [1] | [2] | [3] | [4] | [5] | [6] | [7] | [8] | [9] | [10] | [11] | [12] | [13] | [14] | [15]

COC(=O)c1nc(-c2cccc(Cl)c2F)ccc1Cl [F277, Methyl 3-chloro-6-(3-chloro-2-fluorophenyl) picolinate]
0 to 29%: [1] | [2] | [3] | [4] | [5] | [6] | [7] | [8] | [9] | [10] | [11] | [12] | [13] | [14] | [15]

COC(=O)c1nc(-c2cc(F)c(Cl)c(OC)c2)ccc1Cl [F278, Methyl 3-chloro-6-(4-chloro-3-fluoro-5-methoxyphenyl) picolinate]
0 to 29%: [1] | [2] | [3] | [4] | [5] | [6] | [7] | [8] | [9] | [10] | [11] | [12] | [13] | [14] | [15]

CCCCOc1c(Cl)ccc(-c2ccc(Cl)c(C(=O)OC)n2)c1F [F279, Methyl 6-(3-butoxy-4-chloro-2-fluorophenyl)-3-chloropicolinate]
0 to 29%: [1] | [2] | [3] | [4] | [5] | [6] | [7] | [8] | [9] | [10] | [11] | [12] | [13] | [14] | [15]
